Earlier results as cited in PMC4123439 (Bioorganic & medicinal chemistry, 2009).

Tested on: Tdp1
Details: at concentrations of up to 1 mM

COS(=O)(=O)c1ccc(C)cc1 [methyl p-toluene sulfonate]
Tdp1 inhibitory activity: inactive
